Assay results: patent US11753408B2, “Compounds and method for blocking transmission of malarial parasite” (The United States of America, as represented by the …, priority 2016, dated 2023)
Like-named read-outs stand apart in the source and are kept apart here.

Tests used:
[1] = biological target: mTOR (Homo sapiens, UniProt P42345); test: mTOR activity (no method described); format: biochemical
[2] = PAMPA permeability; format: in vitro ADME
[3] = Microsomal stability (rat); format: in vitro ADME; conditions: rat microsomes
[4] = tested on: Stage III-V gametocytes (blood stage P. falciparum parasites); test: In vitro drug activity on gametocytes (AlamarBlue viability assay); format: cell-based, Plasmodium falciparum; conditions: read-out: Gametocyte EC50
In short: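 P. falciparum 3D7 stage III–V gametocytes (also HB3, Dd2), enriched by 50 mM N-acetylglucosamine and Percoll gradient, seeded at 20,000/well with compound for 72 h at 37° C, 5% CO2. AlamarBlue then added for 24 h; viability read as fluorescence (Ex 525, Em 598 nm).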

[5] = tested on: Asexual parasites of P. falciparum strain 3D7; test: In vitro drug activity on asexual parasites (SYBR Green assay); format: cell-based, Plasmodium falciparum
In short: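 3D7 parasites at 0.5% parasitemia and 2% hematocrit were exposed to drugs (DMSO ≤0.5%) for 72 h under standard culture conditions, in duplicate. After freeze-thaw lysis, SYBR Green I lysis buffer was added for 30 min at room temperature, and fluorescence was read at 490/520 nm.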

[6] = Solubility at pH 7.4; format: physicochemical
[7] = P. falciparum stage III-V gametocytes, 72 h incubation, AlamarBlue
[8] = P. falciparum 3D7 asexual parasites, 72 h, SYBR Green

Structure (SMILES) | mTOR [1] [nM] | PAMPA Permeability [2] [×10⁻⁶ cm/s] | Microsomal Stability (rat) T1/2 [3] [min] | EC50 [4] [nM] | EC50 [5] [nM] | Sol @ pH 7.4 [6] [ug/mL] | PAMPA Permeability (×10^6 cm/s) [2] | EC50 [4, 7] [nM] | EC50 [5, 8] [nM] | Sol @ pH 7.4 (ug/mL) [6] [ug/mL]
CN(C)Cc1ccc(-c2ccc3ncc4ccc(=O)n(-c5ccc(C(=O)N6CCOCC6)cc5)c4c3c2)cc1 [Compound 86] | 3776 | 459 | >30.0 | 212 | 177 | 61.6 |  |  |  | 
O=C(NC1CC1)c1ccc(-n2c(=O)ccc3cnc4ccc(-c5ccc(Cl)cc5)cc4c32)cc1 [Compound 87] | 241.1 | 33.1 | >30.0 | 139 | 24.4 | 2.6 |  |  |  | 
Cc1cc(C(=O)NC2CC2)ccc1-n1c(=O)ccc2cnc3ccc(-c4ccc(Cl)cc4)cc3c21 [Compound 88] | 1841 | 117 |  | 141 | 56.7 | 0.51 |  |  |  | 
CN(C)C(=O)c1ccc(-n2c(=O)ccc3cnc4ccc(-c5ccc(Cl)cc5)cc4c32)cc1 [Compound 100] | 1531 | 315 | 3.8 | 45.5 | 14.8 | <1.0 |  |  |  | 
Cc1cccc(-c2ccc3ncc4ccc(=O)n(-c5ccc(C(=O)N6CCOCC6)cc5)c4c3c2)c1 [Compound 121] | 522.6 | 243 | 5.4 | 443 | 221 |  |  |  |  | 
O=C(c1ccc(-n2c(=O)ccc3cnc4ccc(-c5cccc(Cl)c5)cc4c32)cc1)N1CCOCC1 [Compound 122] | 1303 | 822 | 5.4 | 371 | 261 |  |  |  |  | 
N#Cc1cccc(-c2ccc3ncc4ccc(=O)n(-c5ccc(C(=O)N6CCOCC6)cc5)c4c3c2)c1 [Compound 124] | 1357 | 20.4 | 19.7 | 349 | 144 |  |  |  |  | 
O=Cc1ccc(-c2ccc3ncc4ccc(=O)n(-c5ccc(C(=O)N6CCOCC6)cc5)c4c3c2)cc1 [Compound 169] | 631.5 | 204 |  | 630 | 301 | 2.8 |  |  |  | 
CN(C)Cc1cccc(-c2ccc3ncc4ccc(=O)n(-c5ccc(C(=O)N6CCOCC6)cc5)c4c3c2)c1 [Compound 173] | 100000 | 366 |  | 2530 |  | >77.00 |  |  |  | 
COc1cc(C(=O)NC2CC2)ccc1-n1c(=O)ccc2cnc3ccc(-c4ccc(F)cc4)cc3c21 [Compound 188] | 7201 | 1250 | 21.5 | 602 |  | <1 |  |  |  | 
O=C(c1ccc(-n2c(=O)ccc3cnc4ccc(-c5ccc(CN6CCC6)cc5)cc4c32)cc1)N1CCOCC1 [Compound 189] | 6514 | 212 | >30 | 358 |  | >78 |  |  |  | 
COc1cc(C(=O)NC2CC2)ccc1-n1c(=O)ccc2cnc3ccc(-c4ccc(Cl)cc4)cc3c21 [Compound 191] | 4337 | 606 | 26.7 | 172 |  | 2.4 |  |  |  | 
COc1cc(C(=O)N2CCOCC2)ccc1-n1c(=O)ccc2cnc3ccc(-c4ccc(CN(C)C)cc4)cc3c21 [Compound 193] | 8290 | 162 | >30 | 814 |  | >81 |  |  |  | 
COc1cc(C(=O)N2CCOCC2)ccc1-n1c(=O)ccc2cnc3ccc(-c4ccc(F)cc4)cc3c21 [Compound 194] | 100000 | 1080 | 6.9 | 702 |  | <1 |  |  |  | 
CCc1ccc(-c2ccc3ncc4ccc(=O)n(-c5ccc(C(=O)N6CCOCC6)cc5)c4c3c2)cc1 [Compound 195] | 781.4 | 148 | 8.8 | 276 |  | <1 |  |  |  | 
CC(C)(N)c1cccc(-c2ccc3ncc4ccc(=O)n(-c5ccc(C(=O)N6CCOCC6)cc5)c4c3c2)c1 [Compound 197] | 2384 | 3.5 | >30 | 65100 |  | >77 |  |  |  | 
CC1CC1NC(=O)c1ccc(-n2c(=O)ccc3cnc4ccc(-c5ccc(N)nc5)cc4c32)cc1 (stereo not drawn) [Compound 338] | 150.5 | 141 |  | 65.9 |  | 0.32 |  |  |  | 
O=C1NCc2cc(-n3c(=O)ccc4cnc5ccc(-c6ccc(CN7CCCC7)cc6)cc5c43)ccc21 [Compound 371] |  |  | >30 |  |  |  | 1.2 ×10^6 cm/s | 2470 | 472 | 45.3
O=C1NCc2cc(-n3c(=O)ccc4cnc5ccc(-c6ccc(CCN7CCOCC7)cc6)cc5c43)ccc21 [Compound 372] |  |  | >30 |  |  |  | <1 ×10^6 cm/s | 1050 | 540 | <1
NC1(c2ccc(-c3ccc4ncc5ccc(=O)n(-c6ccc7c(c6)CNC7=O)c5c4c3)cc2)CC1 [Compound 373] |  |  | >30 |  |  |  | <6.3 ×10^6 cm/s | 45.7 | 350 | 3.3
CN(C)Cc1ccc(-c2ccc3ncc4ccc(=O)n(-c5ccc6c(c5)NC(=O)C6)c4c3c2)cc1 [Compound 374] |  |  | >30 |  |  |  | <1.6 ×10^6 cm/s | 12900 | 4180 | 52.5
CN(C)CCc1ccc(-c2ccc3ncc4ccc(=O)n(-c5ccc6c(c5)CNC6=O)c4c3c2)cc1 [Compound 375] |  |  | >30 |  |  |  | <1.1 ×10^6 cm/s | 715 | 389 | 13.1
Nc1ccc(-c2ccc3ncc4ccc(=O)n(-c5ccc6c(c5)C(=O)NC6)c4c3c2)cn1 [Compound 387] |  |  | >30.0 |  |  |  | <4.1 ×10^6 cm/s | 1840 | 316 | 1.4
Nc1ccc(-c2ccc3ncc4ccc(=O)n(-c5ccc6c(c5)CN(C5CC5)C6=O)c4c3c2)cn1 [Compound 390] |  |  | >30.0 |  |  |  | 25 ×10^6 cm/s | 116 | 75.2 | 4.2
CN1C(=O)CCc2cc(-n3c(=O)ccc4cnc5ccc(-c6ccc(N)nc6)cc5c43)ccc21 [Compound 392] |  |  | >30.00 |  |  |  | 133.39 ×10^6 cm/s | 46.1 | 22 | 33.81
Nc1ccc(-c2ccc3ncc4ccc(=O)n(-c5ccc6c(c5)NC(=O)C6)c4c3c2)cn1 [Compound 394] |  |  | >30 |  |  |  | <1 ×10^6 cm/s | 438 | 130 | <1
Cn1c(=O)n(-c2ccc(N3CCN(CCO)CC3)c(C#N)c2)c2c3cc(-c4ccc(Cl)cc4)ccc3ncc21 [Compound 417] | 319 | < 1 |  | 36.5 |  | <1 |  |  |  | 
